# Where a name gives a salt, the structure may show the parent alone. Read-outs that look alike come from different tables or passages of the source.
# Assays:
# Escherichia coli KC-14 [1] = experiment: Antibacterial activity in vitro (minimum inhibitory concentration: MIC); assay type: cell-based
# Method: (§1) (1) Measurement of antibacterial activity in vitro (minimum inhibitory concentration: MIC):
# (§2) The test compounds were each dissolved in 0.1N aqueous potassium hydroxide or sterilized distilled water and diluted with sterilized distilled water to give a standard solution (concentration: 1,000 μg/ml). The test was carried out by a method as appointed by Japan Society of Chemotherapy [cf. Chemotherapy, 29, 76-79 (1981) (TOKYO)].
# [2] = tested on: Staphylococcus aureus IID 803; experiment: as above; assay type: cell-based
# Method: (§3) Staphylococcus aureus IID 803
# as §1, §2
# Escherichia coli KC-14 [3] = experiment: Antibacterial activity in vivo (effect against systemic infection: ED50), E. coli infected mice; design: species or system ddY male mice infected with Escherichia coli; details: read-out: Antibacterial activity ED50 (50% effective dose)
# Method: (§4) (2) Measurement of antibacterial activity in vivo (effect against systemic infection: ED50):
# (§5) The test microorganism was cultured by stationary culture in an agar medium (Trypto-Soya Agar "Nissui", manufactured by Nissui Seiyaku K.K., Japan) at 37° C. for 16 to 18 hours. The culture was diluted with PBS (Dulbecco's phosphate buffered saline) and then was mixed with an equiamount of 10% (W/V) mucin (BACTO MUCIN BACTERIOLOGICAL, manufactured by Difco Co.). The mixture thus prepared was intraperitoneally inoculated to fasted ddY male mice (4 weeks age, weighing 18-20 g, one group: 5 mice) in a dose of 0.5 ml. The inoculum size was 1.3×10^7 CFU/mouse in case of S. aureus IID 803, and 9.7×10^3 CFU/mouse in case of E. coli KC-14.
# (§6) The mice were daily observed for one week, and from the survival number of mice after one week, the 50% effective dose (ED50) was calculated by the Weil method.
# [4] = tested on: Staphylococcus aureus IID 803; experiment: Antibacterial activity in vivo (effect against systemic infection: ED50), S. aureus infected mice; design: species or system ddY male mice infected with Staphylococcus aureus; details: read-out: Antibacterial activity ED50 (50% effective dose)
# Method: as §3, §4, §5, §6
# in vivo = details: mouse, po
# Method: EXPERIMENT 2: ACUTE TOXICITY (LD50)
# The number of dead mice during 2 weeks after administration was counted, and the acute toxicity (LD50) was calculated by Weil method.
# [5] = KC14, E. coli KC-14, in vitro, read-out: Antibacterial activity MIC (minimum inhibitory concentration)
# [6] = IID803, S. aureus IID 803, in vitro, read-out: Antibacterial activity MIC (minimum inhibitory concentration)
# [7] = KC14, 168 h, E. coli KC-14 systemic infection, mice, oral 1 h after infection, survival after one week
# [8] = IID803, 168 h, S. aureus IID 803 systemic infection, mice, oral 1 h after infection, survival after one week
SMILES,MIC (Escherichia coli KC-14 [1]; [5]) [µg/mL],"MIC [2, 6] [µg/mL]",ED50 (Escherichia coli KC-14 [3]; [7]) [mg/kg],"ED50 [4, 8] [mg/kg]",LD50 at 336 h (in vivo) [mg/kg],"MIC (Escherichia coli KC-14 [1]; KC14, read-out: Antibacterial activity MIC (minimum inhibitory concentration)) [µg/mL]","MIC ([2]; IID803, read-out: Antibacterial activity MIC (minimum inhibitory concentration)) [µg/mL]","ED50 (Escherichia coli KC-14 [3]; KC14, po, 168 h) [mg/kg]","ED50 ([4]; IID803, po, 168 h) [mg/kg]"
"CCn1cc(C(=O)O)c(=O)c2cc(F)c(N3CCN(O)CC3)c(F)c21.Cl [compound 3, 1-Ethyl-6,8-difluoro-1,4-dihydro-7-(4-hydroxypiperazin-1-yl)-4-oxoquinoline-3-carboxylic acid hydrochloride]",0.2,0.78,0.84,26.8,> 4000,–,–,–,–
"Cl.O=C(O)c1cn(C2CC2)c2cc(N3CCNCC3)c(F)cc2c1=O [B, 1-Cyclopropyl-6-fluoro-1,4-dihydro-7-(piperazin-1-yl)-4-oxoquinoline-3-carboxylic acid hydrochloride, reference compound]",–,–,–,–,–,0.0125,0.78,0.84,46.7
"Cl.O=C(O)c1cn(C2CC2)c2c(F)c(N3CCNCC3)c(F)cc2c1=O [E, 1-Cyclopropyl-6,8-difluoro-1,4-dihydro-7-(piperazin-1-yl)-4-oxoquinoline-3-carboxylic acid hydrochloride, reference compound]",0.0125,0.2,0.28,5.07,1410,–,–,–,–
"Cl.O=C(O)c1cn(C2CC2)c2c(F)c(N3CCN(O)CC3)c(F)cc2c1=O [compound 5, 1-Cyclopropyl-6,8-difluoro-1,4-dihydro-7-(4-hydroxypiperazin-1-yl)-4-oxoquinoline-3-carboxylic acid hydrochloride]",0.05,0.39,0.19,3.84,> 4000,–,–,–,–
"O=C(O)c1cn(C2CC2)c2cc(N3CCN(O)CC3)c(F)cc2c1=O [compound 2, 1-Cyclopropyl-6-fluoro-1,4-dihydro-7-(4-hydroxypiperazin-1-yl)-4-oxoquinoline-3-carboxylic acid hydrochloride 1/4 hydrate]",0.025,0.78,0.37,17.7,> 4000,–,–,–,–
"CCn1cc(C(=O)O)c(=O)c2cc(F)c(N3CCN(O)CC3)cc21 [compound 1, 1-Ethyl-6-fluoro-1,4-dihydro-7-(4-hydroxypiperazin-1-yl)-4-oxoquinoline-3-carboxylic acid]",0.39,1.56,1.92,187,> 4000,–,–,–,–
"CCn1cc(C(=O)O)c(=O)c2cc(F)c(N3CCNCC3)cc21 [A, 1-Ethyl-6-fluoro-1,4-dihydro-7-(piperazin-1-yl)-4-oxoquinoline-3-carboxylic acid, reference compound]",0.2,1.56,5.82,225,–,–,–,–,–
"Cl.O=C(O)c1cn(CCF)c2c(F)c(N3CCNCC3)c(F)cc2c1=O [D, 6,8-Difluoro-1-(2-fluoroethyl)-1,4-dihydro-7-(piperazin-1-yl)-4-oxoquinoline-3-carboxylic acid hydrochloride, reference compound]",0.2,1.56,5.82,123,–,–,–,–,–
"Cl.O.O=C(O)c1cn(CCF)c2c(F)c(N3CCN(O)CC3)c(F)cc2c1=O [compound 4, 6,8-Difluoro-1-(2-fluoroethyl)-1,4-dihydro-7-(4-hydroxypiperazin-1-yl)-4-oxoquinoline-3-carboxylic acid hydrochloride monohydrate]",0.39,1.56,1.46,107,> 4000,–,–,–,–
"CCn1cc(C(=O)O)c(=O)c2cc(F)c(N3CCNCC3)c(F)c21.Cl [C, 1-Ethyl-6,8-difluoro-1,4-dihydro-7-(piperazin-1-yl)-4-oxoquinoline-3-carboxylic acid hydrochloride, reference compound]",0.1,0.78,1.46,40.3,1070,–,–,–,–
